US12485147B2, “Method for producing cell mass including pituitary tissue, and cell mass thereof” (SUMITOMO CHEMICAL COMPANY, LIMITED, priority 2017, dated 2025)

Legend:
Type in all cases: cell-based
[1] = system: Human ES cells (KhES-1 strain); assay: Addition conditions of Wnt signal transduction pathway inhibiting substance in production of cell mass containing pituitary tissue; bright field observation; settings: day 28; for size and condition of cell mass: 2 μM IWP-2, 5 μM KY02111, 1 μM XAV939, 1 μM IWR1e; for nonneural epithelial structure on surface of cell mass: IWP-2 2 μM, KY02111 5 μM, C-59 500 nM, LGK974 5 μM, XAV939 1 μM, IWR1-endo 1 μM added at start, with SB-431542, BMP4, SAG
Experimental: (§1) Human ES cells (KhES-1 strain) were cultured under feeder-free conditions according to the method described in Scientific Reports, 4, 3594 (2014). As the feeder-free medium, StemFit medium was used and, as the feeder-free scaffold, Laminin 511-E8 was used.
(§2) Specific maintenance culturing operation was performed in the same manner as in Example 1.
Thereafter, suspension culturing in a 96 well plate was performed under conditions similar to those in Example 1 except that the kind or the presence or absence of the Wnt signal transduction pathway inhibiting substance to be added at the start of suspension culturing was changed. As the Wnt signal transduction pathway inhibiting substances, IWP-2, C-59 (manufactured by Cayman Chemicals, 500 nM), LGK974 (manufactured by Cayman Chemicals, 5 μM) which are PORCN inhibitors; XAV939 (manufactured by Cayman Chemicals, 1 μM), IWR1-endo (manufactured by Merck Millipore, 1 μM) which are TANK inhibitors, and KY02111 (manufactured by Cayman Chemicals, 5 μM) whose action mechanism has not been reported were added at the start of the suspension culturing, and the condition with the addition of DMSO alone as a control of no addition of a Wnt signal transduction pathway inhibiting substance was performed.
A serum-free medium not containing Y27632 and containing each Wnt signal transduction pathway inhibiting substance, SB-431542, BMP4, and SAG was added at 100 μl per well on day 2 from the start of suspension culturing. BMP4 was added at 3 nM to the medium so that the final concentration in the well would be 1.5 nM, and SAG was added at 4 μM to the medium so that the final concentration in the well would be 2 μM.
A half amount of the medium was changed with a serum-free medium not containing Y27632 or BMP4 and containing each Wnt signal transduction pathway inhibiting substance, SB-431542 and SAG on days 6, 10, 13, 17, 21, 24 from the start of suspension culturing. In addition to the above-mentioned conditions, the condition in which neither SB431542 nor a Wnt signal transduction pathway inhibiting substance is added during suspension culturing was also performed.
Bright field observation was performed using an inverted microscope (manufactured by KEYENCE CORPORATION, BIOREVO) on day 28 from the start of suspension culturing (FIGS. 7A-H).

[2] = system: Human ES cells (KhES-1 strain); assay: TGFβ signal transduction pathway inhibitory conditions in production of cell mass containing pituitary tissue; settings: IWP-2 added, no TGFβ signal transduction pathway inhibiting substance; day 28
Experimental: as §1, §2
Thereafter, suspension culturing in a 96 well plate was performed under conditions similar to those in Example 1 except that the concentration and kind of the TGFβ signal transduction pathway inhibiting substance to be added at the start of the suspension culturing are changed. As the TGFβ signal transduction pathway inhibiting substance therefor, SB431542 (1 or 10 μM), A 83-01 (manufactured by Cayman Chemicals, 1 or 10 μM), and RepSox (manufactured by Cayman Chemicals, 1 μM) were added at respective concentration conditions.
Thereafter, a serum-free medium not containing Y27632 and containing IWP-2, each TGFβ signal transduction pathway inhibiting substance, BMP4, and SAG was added at 100 μl per well on day 2 from the start of suspension culturing. BMP4 was added at 3 nM to the medium so that the final concentration in the well would be 1.5 nM, and SAG was added at 4 μM to the medium so that the final concentration in the well would be 2 μM.
A half amount of the medium was changed with a serum-free medium not containing Y27632 or BMP4 and containing IWP-2, each TGFβ signal transduction pathway inhibiting substance, and SAG on days 6, 10, 13, 17, 21, 24 from the start of suspension culturing. In addition to the above-mentioned conditions, the condition in which neither a TGFβ signal transduction pathway inhibiting substance nor IWP-2 is added during suspension culturing, and the condition in which IWP-2 is added and a TGFβ signal transduction pathway inhibiting substance is not added during suspension culturing were also performed.

[3] = system: Human iPS cells (HC-6 #10 strain); assay: Cell mass from human iPS cells using Wnt signal transduction pathway activating substance (CHIR99021) and inhibiting substance in combination; bright field observation and immunostaining
Experimental: Human iPS cells (HC-6 #10 strain, obtained from RIKEN) were cultured under feeder-free conditions according to the method described in Scientific Reports, 4, 3594 (2014). As the feeder-free medium, StemFit medium was used and, as the feeder-free scaffold, Laminin 511-E8 was used. Specific maintenance culturing operation was performed in the same manner as in Example 1. The thus-prepared subconfluent human iPS cells were washed with PBS, subjected to an enzyme treatment using Accumax, a serum-free medium for differentiation induction was added, and the cells were scraped from the surface of the culture dish by using a cell scraper and dispersed into single cells by pipetting. Thereafter, the aforementioned human ES cells dispersed into single cells were suspended in 100 μl of a serum-free medium at 9×10^3 cells per well of a non-cell-adhesive 96-well culture plate (PrimeSurface […]-bottom plate, manufactured by SUMITOMO BAKELITE), and cultured in suspension under the conditions of 37° C., 5% CO2. As the serum-free medium ([…]) therefor, a serum-free medium which is a 1:1 mixture of F-12+Glutamax medium (manufactured by Thermo Fisher Scientific) and IMDM+Glutamax medium (manufactured by Thermo Fisher Scientific) supplemented with 5% Knockout Serum Replacement (manufactured by Thermo Fisher Scientific), 450 μM 1-monothioglycerol (manufactured by Wako Pure Chemical Industries, Ltd.), 1× Chemically defined lipid concentrate (manufactured by Thermo Fisher Scientific), 50 unit/ml penicillin-50 μg/ml streptomycin (manufactured by Nacalai Tesque) was used. At the time of the start of suspension culturing (day 0 from the start of suspension culturing, start of step 1), Y27632 (final concentration 20 μM), SB-431542 (TGFβ signal transduction pathway inhibiting substance, manufactured by Wako Pure Chemical Industries, Ltd., 1 μM), and IWP-2 (Wnt signal transduction pathway inhibiting substance, manufactured by Tocris Bioscience, 2 μM) were added to the aforementioned serum-free medium. In addition, conditions in which CHIR99021 (manufactured by Cayman Chemical) is added at 300 nM, 1 μM, 3 μM as a Wnt signal transduction pathway activating substance, and conditions in which DMSO alone is added as a control of no addition were set, totaling in 4 conditions. In the present Example, CHIR99021 is sometimes referred to as CHIR. A serum-free medium not containing Y27632 and containing SB-431542, IWP-2, BMP4 (BMP signal transduction pathway activating substance) and CHIR99021 under each condition set was added at 100 μl per well on day 2 from the start of suspension culturing. BMP4 was added at 3 nM to the medium so that the final concentration in the well would be 1.5 nM. As a method for inducing cell mass containing nonneural epithelium and placode, a half amount of the medium was changed with a serum-free medium not containing Y27632 or BMP4, and containing IWP-2, SB-431542, K02288 (BMP signal transduction pathway inhibiting substance, manufactured by AdooQ Bioscience), FGF2-TS (FGF signal transduction pathway activating substance, manufactured by HumanZyme) and Heparin Sodium (manufactured by FUJIFILM Wako Pure Chemical Corporation) on day 3 from the start of suspension culturing. K02288, FGF2, and Heparin Sodium were respectively added at 2 μM, 40 ng/ml, and 20 μg/ml to the medium so that the final concentration in the well would be respectively 1 μM, 20 ng/ml, and 10 μg/ml. A half amount of the medium was changed on day 6 and day 10 from the start of suspension culturing. On day 13 from the start of suspension culturing, bright field observation was performed under an inverted microscope (FIGS. 11A-D). […] The above-mentioned cell masses on day 13 of the culturing were fixed by a method similar to that in Example 1 to prepare cryosections. […]

[4] = system: Human ES cells (KhES-1 strain); assay: Effect of compound treatment before differentiation induction in production of cell mass containing pituitary tissue; bright field observation; settings: pre-treatment with 5 μM SB-431542 alone; day 28
Experimental: Human ES cells (KhES-1 strain) were cultured under feeder-free conditions according to the method described in Scientific Reports, 4, 3594 (2014). As the feeder-free medium, StemFit medium was used and, as the feeder-free scaffold, Laminin 511-E8 was used. Specific maintenance culturing operation was performed in the same manner as in Example 1. As a pre-treatment for differentiation induction of the cultured cells, cells under 4 conditions were maintenance cultured under conditions in which, condition in which nothing is simultaneously added with medium change with […] medium (Control), conditions in which 300 nM SAG alone is added (+300 nM SAG), conditions in which 5 μM SB-431542 alone is added (+5 μM SB-431542), and conditions in which SAG and SB431542 are simultaneously added (+SAG/SB) at 6 days after seeding. The next day of the above-mentioned treatment, human ES cells under 4 conditions that reached subconfluence were each subjected to differentiation induction by suspension culturing into a cell mass containing pituitary tissue according to the method described in Example 1. Bright field observation was performed under an inverted microscope on day 28 from the start of suspension culturing (FIGS. 6A-D).

[5] = 300 nM CHIR vs no addition, day 13

Compound: Cc1ccc2nc(NC(=O)CSc3nc4c(c(=O)n3-c3ccccc3)SCC4)sc2c1 [IWP-2]
- size and condition of cell mass [1]: large cell masses in good condition were formed
- nonneural epithelial structure on surface of cell mass [1]: cell masses having a nonneural epithelial structure on the surface were formed
- mesenchymal cell between outer nonneural epithelial tissue and inner neuroepithelial tissue [2]: a mesenchymal cell could not be confirmed
- nonneural epithelial structure on surface of cell mass [2]: a nonneural epithelial structure was formed on the surface of the cell mass
- size of cell mass [2]: the formed cell mass was small

Compound: Cc1c[nH]c(-c2cnc(NCCNc3ccc(C#N)cn3)nc2-c2ccc(Cl)cc2Cl)n1 [CHIR99021]
- neural tissue in the inside [3, 5]: survival of neural tissue in the inside and epithelial formation were promoted
- size of cell mass [3, 5]: larger cell masses were formed
- marker-positive tissue formation (immunostaining) ([3]; 300 nM, 1 μM CHIR (also no addition), day 13): formation of Dlx5, Six1, E-Cadherin, N-Cadherin positive nonneural epithelium or placode precursor tissue
- nonneural epithelium thickening and placode formation ([3]; 1 μM CHIR, day 13): thickening of nonneural epithelium on the outside and formation of placode were suppressed
- formation of nonneural epithelial tissue on surface (bright field) ([3]; 3 μM CHIR99021, day 13): formation of nonneural epithelial tissue on the surface of cell mass is inhibited
- formation of nonneural epithelium (immunostaining) ([3]; 3 μM CHIR, day 13): Formation of nonneural epithelium was not observed
- growth of cell masses (bright field) ([3]; CHIR99021 300 nM, 1 μM, 3 μM in presence of IWP-2, day 13): cell masses grow in a concentration-dependent manner
- level effective for growth of whole cell masses, survival of neural tissue in the inside and promotion of epithelial formation ([3]; in the presence of IWP-2): not more than 3 μM

Compound: NC(=O)c1ccc(-c2nc(-c3ccc4c(c3)OCO4)c(-c3ccccn3)[nH]2)cc1 [SB431542, 4-(5-benzol[1,3]dioxol-5-yl-4-pyridin-2-yl-1H-imidazol-2-yl)-benzamide]
- nonneural epithelial tissue on surface of cell mass ([1]; SB431542 added, no Wnt signal transduction pathway inhibiting substance): nonneural epithelial tissue was not formed on the surface of the cell masses
- cell mass formation [4]: larger cell masses containing pituitary tissues were formed

Compound: Oc1nc(-c2ccc(C(F)(F)F)cc2)nc2c1CSCC2 [XAV939]
- size and condition of cell mass [1]: large cell masses in good condition were formed
- nonneural epithelial structure on surface of cell mass [1]: cell masses having a nonneural epithelial structure on the surface were formed

Compound: Cc1cc(-c2ncc(CC(=O)Nc3ccc(-c4cnccn4)cn3)cc2C)ccn1 [LGK974]
- nonneural epithelial structure on surface of cell mass [1]: cell masses having a nonneural epithelial structure on the surface were formed

Compound: Cc1cc(-c2ccc(CC(=O)Nc3ccc(-c4cccnc4)cc3)cc2)ccn1 [C59]
- nonneural epithelial structure on surface of cell mass [1]: cell masses having a nonneural epithelial structure on the surface were formed

Compound: COc1ccc(CCC(=O)Nc2nc3ccc(Cl)cc3s2)cc1OC [KY02111]
- size and condition of cell mass [1]: large cell masses in good condition were formed
- nonneural epithelial structure on surface of cell mass [1]: cell masses having a nonneural epithelial structure on the surface were formed

Compound: O=C(Nc1cccc2cccnc12)c1ccc(N2C(=O)[C@@H]3[C@H](C2=O)[C@@H]2C=C[C@H]3C2)cc1 [IWR1-endo]
- size and condition of cell mass [1]: large cell masses in good condition were formed
- nonneural epithelial structure on surface of cell mass [1]: cell masses having a nonneural epithelial structure on the surface were formed
